The values below come from US7595294B2, “Vasoactive intestinal polypeptide pharmaceuticals” (Transition Therapeutics, Inc., priority 2004, dated 2009).

Where no end group is shown, it is not given here.

In assay [1] the test system is db/db mice. The assay can be described thus: In vivo bioassay: blood glucose in db/db mice after intraperitoneal injection. Conditions: for Mean Blood Glucose Levels: i.p.; for Activity (reduced plasma glucose), in words: high dose. The protocol: Tested Study Groups. Naïve, 8 weeks old female db/db mice were acclimated for one week, during which period animals were handled periodically to allow them to be acclimated to experiment procedures. Study groups contained 6 mice per group and were administered with one of the following by intraperitoneal injection:
(2) Positive control (exendin-4 or other standard treatment);
(3) Polypeptide Analog at high dose; or
(4) Polypeptide Analog at low dose.
A small volume of blood was taken from a cut at the tip of tail for blood sampling. Blood glucose levels were determined on a commercial, hand-held glucose meter. On Day 1, animals were injected with polypeptide analogs and controls in the morning. Blood samples were taken and analyzed immediately before injection and at 2, 4, 8, 14, and 24 hours after injection. Animals were allowed to feed, ad libitem, throughout the assay (Tsutsumi et al., Diabetes 51:1453-60 (2002)).

Assay [2] concerns Rat islets. Kind of assay: In vitro bioassay with islet cell static cultures (insulin secretion, ELISA). Type of assay: cell-based. Conditions: for Insulin secreted: Table 2, 120 min incubation; for Concentration at which maximal activity was exhibited in the assay: islet static culture, insulin secretion; for Average Insulin secreted: Table 3. The protocol:
Islet isolation. […] Generally, the islets were prepared by injecting collagenase (10 mL of 0.23 mg/mL Liberase, Roche Molecular Biochemicals, Indianapolis, Ind.) into the pancreatic duct of the partially dissected pancreas and surgically removing it. All procedures were approved by the Institutional Animal Care and Use Committee at the University of Washington.
The pancreata were placed into 15 mL conical tubes containing 5 mL of 0.23 mg/mL Liberase and incubated at 37° C. for 30 min. The digestate was then filtered through a 400-micrometer stainless steel screen, rinsed with Hanks' buffered salt solution, and purified in a gradient solution of Optiprep (Nycomed, Oslo, Norway).
Bioassay. Islets were picked under a microscope and placed into 10 ml 3 mM Krebs Ringer Buffer (KRB) solution for washing. Islets were incubated in 3 mM glucose KRB for 60 min and then groups of 10 islets per well were placed into 200 μl media in a 96-well plate. […] The buffer conditions were KRB with 0.1% BSA, 20 mM HEPES and the assay was performed in quadruplicate. Supernatants were evaluated for insulin content using a commercial insulin enzyme-linked immunosorbent (ELISA) assay per manufacturer's directions.
A general note: An ELISA detects its analyte on a solid surface through an enzyme-linked reagent.

Setting [3] is: High dose, 0 hr (immediately before injection).
Where [4] appears, read: High dose, 2 hr after injection.
Setting [5] is: High dose, 4 hr after injection.
Setting [6] is: High dose, 8 hr after injection.
Setting [7] is: High dose, 14 hr after injection.
[8] abbreviates: High dose, 24 hr after injection.
Setting [9] is: Low dose, 0 hr (immediately before injection).
[10] abbreviates: Low dose, 14 hr after injection.
The mark [11] stands for this setting: Low dose, 24 hr after injection.

Turning to “TP-103: exemplary synthetic polypeptide analog of PACAP/VIP, amino acid sequence SEQ ID NO: 2 (HSDAVFTDNYTRLRKQVAAKKYLNSIKKGKRELLEKLLRKLK; ends and bridges not checked)”, the “Mean Blood Glucose Levels” value in assay [1] (setting [3]) amounted to 20.7 mmol/L; in assay [1] (setting [4]) it was 17.3 mmol/L; in assay [1] (setting [5]) it was 16.9 mmol/L; in assay [1] (setting [6]) it was 23.4 mmol/L; in assay [1] (setting [7]), 23.7 mmol/L; in assay [1] (setting [8]) it was 25.0 mmol/L. Besides, the “Mean Blood Glucose Levels” value in assay [1] (setting [9]) came out at 22.9 mmol/L; in assay [1] (Low dose, 2 hr after injection), 20.5 mmol/L; in assay [1] (Low dose, 4 hr after injection) it was 17.6 mmol/L; in assay [1] (Low dose, 8 hr after injection) it was 26.4 mmol/L; in assay [1] (setting [10]) it was 24.6 mmol/L; in assay [1] (setting [11]) it was 21.4 mmol/L.
“TP-106: highly hydrophobic polypeptide analog, designed to depot in the site of sc injection; SEQ ID NO: 5 (HSDAVFTDNYTRLRKQVAAKKYLNSIKKGKRELLEKLK)”: the Insulin secreted in assay [2] (50 nM peptide + 16 mM glucose) came to 2.72 ng/100 islets/min; in assay [2] (200 nM peptide + 16 mM glucose), 5.20 ng/100 islets/min. For the same substance, the “Concentration at which maximal activity was exhibited in the assay” value in assay [2] worked out at 200 nM. Further, the “Mean Blood Glucose Levels” value is given as 21.8 mmol/L in assay [1] (setting [3]); 13.4 mmol/L in assay [1] (setting [4]); 14.7 mmol/L in assay [1] (setting [5]); 25.1 mmol/L in assay [1] (setting [6]); 26.3 mmol/L in assay [1] (setting [7]); 21.2 mmol/L in assay [1] (setting [8]). Further, the “Mean Blood Glucose Levels” value is reported as 23.9 mmol/L in assay [1] (setting [9]); 20.5 mmol/L in assay [1] (Low dose, 2 hr after injection); 16.1 mmol/L in assay [1] (Low dose, 4 hr after injection); 24.0 mmol/L in assay [1] (Low dose, 8 hr after injection); 28.2 mmol/L in assay [1] (setting [10]); 23.2 mmol/L in assay [1] (setting [11]). Also, the “Activity (reduced plasma glucose), in words” value in assay [1] (2 hr after injection) is “statistically significant activity”; in assay [1] (4 hrs post dosing) it was “maintains activity”.
With “TP-107: exemplary synthetic polypeptide analog of PACAP/VIP, amino acid sequence SEQ ID NO: 6 (HSDAVFTDNYTRLRKQVAAKKYLNWIKKAKRELLEKLK; ends and bridges not checked)”, the “Average Insulin secreted” value in assay [2] (10 nM peptide + 16 mM glucose) was determined as 2.89 ng/100 islets/min; in assay [2] (100 nM peptide + 16 mM glucose), 6.10 ng/100 islets/min; in assay [2] (1 uM peptide + 16 mM glucose) it was 6.07 ng/100 islets/min. Besides, the “Concentration at which maximal activity was exhibited in the assay” value in assay [2] turned out to be 100 nM.
Turning to “TP-108: exemplary synthetic polypeptide analog of PACAP/VIP, amino acid sequence SEQ ID NO: 7 (HSDAVFTDNYTRLRKQLAAKKYLNSIKKGKRLLRKLQPPPK; ends and bridges not checked)”, the “Average Insulin secreted” value was 4.10 ng/100 islets/min in assay [2] (100 nM peptide + 16 mM glucose) and 5.65 ng/100 islets/min in assay [2] (1 uM peptide + 16 mM glucose).
